Measured values reported in patent publication US20130236445A1, “Bromelain proteinases (Bromelainases) as chemotherapeutic agents in treating and/or preventing various types of cancer in a mammal” (Garfield Medical Group, priority 2011, published 2013).

What was measured:
tumor cell [1] = settings: in vitro; cited from earlier work
CD44 = settings: in vitro; cited from earlier work
TNFα, II-2 = settings: in vitro; cited from earlier work
tumor cells = settings: in vitro; cited from earlier work
tumor cell [2] = settings: in vitro; cited from earlier work; remark: listed apart in the source
[3] = rabbit, in vivo
Protocol: After 8 weeks of treatment, the rabbits were anesthetized with injections of ketamine 75 mg/kg in the femoral muscle and sacrificed. Blood samples were collected from the heart of each rabbit to determine the blood analysis consisting of: complete blood count (CBC), Chemistry-7 and 24, (including Liver and renal function tests), lipid profiles (including Total cholesterol, HDL, LDL, VLDL, and triglycerides), coagulation factors consisting of; prothrombin time (PT), partial thromboplastin time (PPT), and immune-globulin-E.
All laboratory blood analysis were performed on rabbits of all 7 groups, The results were tested using student t-test and Microsoft Excel-7 programs.

[4] = examination of internal organs of bromelain-treated rabbits; design: species or system white rabbits; settings: rabbit, in vivo
Protocol: One half of each organ was frozen and the other half was fixed with 10% neutral buffered formalin for 24 hours. Then the fixed organs were washed […] stepwise dehydrated with 70%, 80%, 90%, 100% ethanol and then embedded in paraffin by using Shandon-Histocentre-2. The embedded organ blocks were sectioned in 4 µm thickness with a microtome (McBain, M 820, American Optical Co. USA) and stained with hematoxylin and eosin stain (H.E. stain). The stained specimens were made transparent with xylene, and mounted with permount on microslides.

| Substance | tumor cell invasion through extracellular matrix, effect (tumor cell [1]) | CD44 expression on metastatic cells, effect (CD44) | secretion of TNFα, II-2, effect (TNFα, II-2) | immunocytotoxicity of lymphocytes against tumor cells, effect (tumor cells) | tumor cell proliferation, effect (tumor cell [2]) | GGTP [3] | HDL [3] | Hb [3] | SGOT [3] | SGPT [3] | TC (total cholesterol) [3] | TRG (triglycerides) [3] | WBC [3] | laboratory blood tests, differences between groups [3] | internal organs, microscopic examination (H.E. stain) [4] |
| --- | --- | --- | --- | --- | --- | --- | --- | --- | --- | --- | --- | --- | --- | --- | --- |
| Ananain [Bromelain F9] | = | ↓ | ↑ | ↑ | ↓ | – | – | – | – | – | – | – | – | – | – |
| Bromelain | – | – | – | – | – | 7+—1 | 43.6+—16.5 mg/ | 11.9+—1.9 gm/dl | 110.8+—30.7 u/l | 71.2+—3.8 u/l | 175.6+—36.8 mg/dl | 92.6+—38.8 mg/dl | 7.3+—2.2 k/ul | no differences among or within each groups | no pathological abnormalities or lesions |
| Stem bromelain [Bromelain F4] | = | – | – | – | – | – | – | – | – | – | – | – | – | – | – |
